Data from paper PMC7248712 (2020).

Columns and labels:
[1] = tested on: poly C (RNA, polymer) C; assay: fluorimetric titration; details: Na+ (sodium cacodylate, I = 0.05 M), pH 7.0, 1 µM compound
[2] = tested on: poly (dAdT)2 (DNA, polymer) AT; assay: fluorimetric titration, Scatchard (McGhee-von Hippel) fit; details: Na+ (sodium cacodylate, I = 0.05 M), pH 7.0, room temperature, 1 µM compound, n fixed 0.2 per polynucleotide base
[3] = tested on: poly A (RNA, polymer) A; assay: as above; details: Na+ (sodium cacodylate, I = 0.05 M), pH 7.0, 1 µM compound, n fixed 0.5 per polynucleotide base
[4] = tested on: poly U (RNA, polymer) U; assay: as above; details: Na+ (sodium cacodylate, I = 0.05 M), pH 7.0, 1 µM compound, n fixed 0.5 per polynucleotide base
[5] = tested on: poly A-poly U (RNA, polymer) A/U; assay: as above; details: Na+ (sodium cacodylate, I = 0.05 M), pH 7.0, room temperature, 1 µM compound, n fixed 0.2 per polynucleotide base
[6] = tested on: poly (dAdT)2 (DNA, polymer) AT; assay: fluorimetric titration; details: Na+ (sodium cacodylate, I = 0.05 M); pH 7.0, 1 µM compound; up to 100-fold excess of polynucleotide bases
[7] = tested on: poly A-poly U (RNA, polymer) A/U; assay: fluorimetric titration; details: Na+ (sodium cacodylate, I = 0.05 M); pH 7.0, 1 µM compound; up to 100-fold excess of polynucleotide bases
[8] = tested on: poly G (RNA, polymer) G; assay: fluorimetric titration; details: Na+ (sodium cacodylate, I = 0.05 M); pH 7.0, 1 µM compound; up to 100-fold excess of polynucleotide bases
[9] = tested on: poly A (RNA, polymer) A; assay: fluorimetric titration; details: Na+ (sodium cacodylate, I = 0.05 M); pH 7.0, 1 µM compound; up to 100-fold excess of polynucleotide bases
[10] = tested on: poly U (RNA, polymer) U; assay: fluorimetric titration; details: Na+ (sodium cacodylate, I = 0.05 M); pH 7.0, 1 µM compound; up to 100-fold excess of polynucleotide bases

Structure (SMILES) | binding ([1]; emission change too small to fit, authors state binding not supported) | log Ks [2] | log Ks [3] | log Ks [4] | log Ks [5] | binding [6] | binding [7] | binding [8] | binding [9] | binding ([1]; up to 100-fold excess of polynucleotide bases) | binding [10]
COC(=O)[C@H](CCCCNC(=O)CCCc1ccc2ccc3cccc4ccc1c2c34)n1cc(Cn2cc3c4c(ncnc42)Nc2ncccc2-3)nn1 | no | 5.7 | 5.2 | 4.7 |  |  |  |  |  |  | 
COC(=O)[C@H](CCCCNC(=O)c1ccc2ccc3cccc4ccc1c2c34)n1cc(Cn2cc3c4c(ncnc42)Nc2ncccc2-3)nn1 |  | 5.0 |  |  | 5.5 |  |  |  |  |  | 
NCCCC[C@@H](C(=O)O)n1cc(Cn2cc3c4c(ncnc42)Nc2ncccc2-3)nn1 |  |  |  |  |  | no | no | no | no | no | no
